Experiment [1] has as its target PI3Kγ (p110γ) Recombinant Human Protein (Homo sapiens (Human), UniProt P48736). The experiment is described as follows: PI3K-γ scintillation proximity assay. The settings on record: 2 μM ATP, 20 μM PIP2. The format is biochemical.
The target in experiment [2] is PI3Kδ (p110δ/p85α) Recombinant Human Protein (Homo sapiens (Human), UniProt O00329). The experiment is described as follows: PI3Kδ scintillation proximity assay. It is filed as biochemical. The settings on record: 2 μM ATP, 20 μM PIP2. On the technique in general: In a scintillation proximity assay essentially only radioactivity close to the scintillant gives light.
In experiment [3] the test system is Phosphorylated Ribosomal Protein S6 (RPS6) in THP-1 cells. The experiment is described as follows: THP-1 RPS6 ELISA assay. It is filed as cell-based, human. The settings on record: 10 nM MCP-1, read-out: PI3Kγ_THP1_RPS6_ELISA IC50. For orientation: In an ELISA, binding on a coated surface is turned into a signal by an enzyme label.
Setting [4] is: Homo sapiens, THP-1, THP-1 cells.

Structures can show the parent of a compound that is named as a salt. Where two headings read alike, the source gives them in different places. Some results are limits rather than exact numbers.

Chain of PI3Kδ (p110δ/p85α) Recombinant Human Protein (O00329 whole entry): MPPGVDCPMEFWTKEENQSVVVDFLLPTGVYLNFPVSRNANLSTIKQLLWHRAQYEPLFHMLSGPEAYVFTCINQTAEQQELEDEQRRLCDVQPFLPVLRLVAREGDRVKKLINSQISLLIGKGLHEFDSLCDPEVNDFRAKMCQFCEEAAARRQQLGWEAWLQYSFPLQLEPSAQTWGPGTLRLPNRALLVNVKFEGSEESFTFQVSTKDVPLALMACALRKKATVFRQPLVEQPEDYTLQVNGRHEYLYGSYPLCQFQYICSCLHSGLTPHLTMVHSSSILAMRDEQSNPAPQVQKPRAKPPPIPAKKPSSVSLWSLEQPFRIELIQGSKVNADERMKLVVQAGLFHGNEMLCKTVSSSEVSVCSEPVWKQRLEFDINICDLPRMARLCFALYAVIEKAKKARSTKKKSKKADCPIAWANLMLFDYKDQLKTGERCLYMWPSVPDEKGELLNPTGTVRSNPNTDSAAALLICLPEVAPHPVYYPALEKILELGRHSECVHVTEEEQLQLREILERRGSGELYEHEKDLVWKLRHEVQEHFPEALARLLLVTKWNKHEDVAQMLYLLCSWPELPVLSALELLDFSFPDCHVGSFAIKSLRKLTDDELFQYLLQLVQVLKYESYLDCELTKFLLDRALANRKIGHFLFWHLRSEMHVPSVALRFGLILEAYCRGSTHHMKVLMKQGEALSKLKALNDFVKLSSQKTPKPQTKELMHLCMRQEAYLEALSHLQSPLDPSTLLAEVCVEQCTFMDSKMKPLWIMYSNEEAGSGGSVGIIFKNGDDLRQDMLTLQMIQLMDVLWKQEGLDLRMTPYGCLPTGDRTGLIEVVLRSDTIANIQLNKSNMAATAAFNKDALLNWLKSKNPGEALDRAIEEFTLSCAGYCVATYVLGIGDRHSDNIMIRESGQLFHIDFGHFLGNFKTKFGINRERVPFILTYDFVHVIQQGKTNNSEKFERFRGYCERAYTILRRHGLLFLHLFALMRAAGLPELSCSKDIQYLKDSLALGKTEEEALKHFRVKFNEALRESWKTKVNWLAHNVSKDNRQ
Chain of PI3Kδ (p110δ/p85α) Recombinant Human Protein (P27986 whole entry partner): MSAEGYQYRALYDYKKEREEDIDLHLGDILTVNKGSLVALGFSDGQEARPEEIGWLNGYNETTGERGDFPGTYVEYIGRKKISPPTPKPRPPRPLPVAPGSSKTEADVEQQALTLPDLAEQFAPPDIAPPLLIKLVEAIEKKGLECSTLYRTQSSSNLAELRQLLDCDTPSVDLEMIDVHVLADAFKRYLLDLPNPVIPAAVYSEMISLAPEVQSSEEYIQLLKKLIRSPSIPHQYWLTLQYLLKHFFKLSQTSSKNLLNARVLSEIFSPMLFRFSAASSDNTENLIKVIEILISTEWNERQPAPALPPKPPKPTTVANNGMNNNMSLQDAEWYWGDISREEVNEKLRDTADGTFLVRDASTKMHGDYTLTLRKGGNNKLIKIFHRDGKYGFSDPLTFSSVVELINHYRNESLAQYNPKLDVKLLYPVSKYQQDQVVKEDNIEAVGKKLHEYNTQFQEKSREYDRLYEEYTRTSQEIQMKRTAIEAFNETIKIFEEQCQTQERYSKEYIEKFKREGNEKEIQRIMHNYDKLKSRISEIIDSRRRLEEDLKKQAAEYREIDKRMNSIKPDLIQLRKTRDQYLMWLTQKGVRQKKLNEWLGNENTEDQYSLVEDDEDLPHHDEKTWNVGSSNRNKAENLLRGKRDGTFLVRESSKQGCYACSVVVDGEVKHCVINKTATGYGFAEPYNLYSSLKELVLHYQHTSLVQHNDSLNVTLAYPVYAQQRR
Chain of PI3Kγ (p110γ) Recombinant Human Protein (P48736 whole entry): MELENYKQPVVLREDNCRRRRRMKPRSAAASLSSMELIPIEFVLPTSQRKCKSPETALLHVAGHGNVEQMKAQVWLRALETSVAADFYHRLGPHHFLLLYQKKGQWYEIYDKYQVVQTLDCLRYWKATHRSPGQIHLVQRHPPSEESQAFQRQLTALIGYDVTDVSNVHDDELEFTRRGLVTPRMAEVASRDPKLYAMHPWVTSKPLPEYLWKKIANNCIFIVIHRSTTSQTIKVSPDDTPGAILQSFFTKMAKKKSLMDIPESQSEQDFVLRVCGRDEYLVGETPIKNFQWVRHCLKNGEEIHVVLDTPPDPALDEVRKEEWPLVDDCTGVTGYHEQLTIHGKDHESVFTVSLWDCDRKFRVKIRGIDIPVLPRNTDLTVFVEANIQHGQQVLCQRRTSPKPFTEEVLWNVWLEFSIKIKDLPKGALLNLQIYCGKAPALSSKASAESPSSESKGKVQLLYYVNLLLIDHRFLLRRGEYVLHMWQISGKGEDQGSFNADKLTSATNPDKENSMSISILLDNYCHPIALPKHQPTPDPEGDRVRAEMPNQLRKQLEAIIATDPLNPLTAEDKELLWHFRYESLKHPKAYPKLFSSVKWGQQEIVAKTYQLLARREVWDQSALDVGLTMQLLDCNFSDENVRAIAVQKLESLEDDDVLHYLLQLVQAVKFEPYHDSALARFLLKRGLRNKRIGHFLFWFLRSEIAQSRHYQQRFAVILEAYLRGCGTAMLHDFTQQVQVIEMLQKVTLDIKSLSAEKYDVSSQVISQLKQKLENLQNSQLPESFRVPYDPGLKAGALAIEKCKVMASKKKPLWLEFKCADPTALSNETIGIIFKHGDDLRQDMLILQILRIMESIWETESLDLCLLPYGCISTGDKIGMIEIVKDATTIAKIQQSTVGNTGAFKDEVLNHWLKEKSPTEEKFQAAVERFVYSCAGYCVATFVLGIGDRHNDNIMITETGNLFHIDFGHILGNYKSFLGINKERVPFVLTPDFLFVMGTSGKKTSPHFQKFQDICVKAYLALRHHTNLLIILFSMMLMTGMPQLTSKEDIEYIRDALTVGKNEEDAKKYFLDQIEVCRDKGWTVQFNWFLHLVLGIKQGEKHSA

What is called IC50 is the concentration that inhibits the measured activity by half. For `CC(NC(=O)c1c(N)nn2cccnc12)c1cc(Cl)c2cncn2c1N1CCCS(=O)(=O)CC1` (racemic) [Example 151, 2-Amino-N-{1-[8-chloro-5-(1,1-dioxido-1,4-thiazepan-4-yl)imidazo[1,5-a]pyridin-6-yl]ethyl}pyrazolo[1,5-a]pyrimidine-3-carboxamide trifluoroacetate salt], the IC50 is < 100 nM in experiment [1], < 100 nM in experiment [2] and < 500 nM in experiment [3] (setting [4]).

Turning to `CC(NC(=O)c1c(N)nn2cccnc12)c1cc(Cl)c2cncn2c1N1CCN(C)C(=O)C1` (racemic) [Example 154, 2-Amino-N-{1-[8-chloro-5-(4-methyl-3-oxopiperazin-1-yl)imidazo[1,5-a]pyridin-6-yl]ethyl}pyrazolo[1,5-a]pyrimidine-3-carboxamide trifluoroacetate salt], the IC50 is < 500 nM in experiment [1], < 500 nM in experiment [2] and < 1000 nM in experiment [3] (setting [4]).

Regarding `CC(NC(=O)c1c(N)nn2cccnc12)c1cc(Cl)c2cncn2c1N1C[C@H](O)C[C@@H](O)C1` (mixture of isomers) [Example 155A, 2-Amino-N-(1-{8-chloro-5-[(3R,5R)-3,5-dihydroxypiperidin-1-yl]imidazo[1,5-a]pyridin-6-yl}ethyl)pyrazolo[1,5-a]pyrimidine-3-carboxamide trifluoroacetate salt], the IC50 in experiment [1] is < 100 nM; in experiment [2] it was < 500 nM; in experiment [3] (setting [4]), < 500 nM.

Turning to `Cc1ncc2c(Cl)cc(C(C)NC(=O)c3c(N)nn4cccnc34)c(N3CCCS(=O)(=O)CC3)n12` (racemic) [Example 158, 2-Amino-N-(1-(8-chloro-5-(1,1-dioxido-1,4-thiazepan-4-yl)-3-methylimidazo[1,5-a]pyridin-6-yl)ethyl)pyrazolo[1,5-a]pyrimidine-3-carboxamide trifluoroacetate salt], the IC50 in experiment [1] is < 100 nM; in experiment [2], < 500 nM; in experiment [3] (setting [4]), < 500 nM.

Regarding `CC(NC(=O)c1c(N)nn2cccnc12)c1cc(Cl)c2c(Cl)ncn2c1N1CCS(=O)(=O)CC1` (racemic) [Example 162, 2-Amino-N-{1-[1,8-dichloro-5-(1,1-dioxidothiomorpholin-4-yl)imidazo[1,5-a]pyridin-6-yl]ethyl}pyrazolo[1,5-a]pyrimidine-3-carboxamide trifluoroacetate salt], the IC50 in experiment [1] is < 100 nM; in experiment [2] it was < 500 nM; in experiment [3] (setting [4]), < 500 nM.

`CC(NC(=O)c1c(N)nn2cccnc12)c1cc(Cl)c2c(Cl)ncn2c1N1CCC(C#N)CC1` (racemic) [Example 163, 2-Amino-N-{1-[1,8-dichloro-5-(4-cyanopiperidin-1-yl)imidazo[1,5-a]pyridin-6-yl]ethyl}pyrazolo[1,5-a]pyrimidine-3-carboxamide trifluoroacetate salt]: the IC50 in experiment [1] was < 100 nM; in experiment [2], < 100 nM; in experiment [3] (setting [4]) it was < 500 nM.

Take `CC(NC(=O)c1c(N)nn2cccnc12)c1cc(Cl)c2c(C#N)ncn2c1N1CCS(=O)(=O)CC1` (racemic) [Example 164, 2-Amino-N-{1-[8-chloro-1-cyano-5-(1,1-dioxidothiomorpholin-4-yl)imidazo[1,5-a]pyridin-6-yl]ethyl}pyrazolo[1,5-a]pyrimidine-3-carboxamide trifluoroacetate salt]: the IC50 in experiment [1] is < 100 nM; in experiment [2], < 2000 nM; in experiment [3] (setting [4]) it was > 1000 nM.

As for `CC1CN(c2c(CNC(=O)c3c(N)nn4cccnc34)cc(Cl)c3cncn23)CCS1(=O)=O` (racemic) [Example 167, 2-Amino-N-((8-chloro-5-(2-methyl-1,1-dioxidothiomorpholino)imidazo[1,5-a]pyridin-6-yl)methyl)pyrazolo[1,5-a]pyrimidine-3-carboxamide trifluoroacetate salt], the IC50 in experiment [1] was < 100 nM; in experiment [2] it was < 500 nM; in experiment [3] (setting [4]), < 500 nM.

For the molecule `CC1CN(c2c(CNC(=O)c3c(N)nn4cccnc34)cc(Cl)c3c(Cl)ncn23)CCS1(=O)=O` (racemic) [Example 169, 2-Amino-N-((1,8-dichloro-5-(2-methyl-1,1-dioxidothiomorpholino)imidazo[1,5-a]pyridin-6-yl)methyl)pyrazolo[1,5-a]pyrimidine-3-carboxamide trifluoroacetate salt], the IC50 in experiment [1] was < 100 nM; in experiment [2], < 500 nM; in experiment [3] (setting [4]) it was < 500 nM.

With `Nc1nn2cccnc2c1C(=O)NC(c1cc(Cl)c2cncn2c1N1CCS(=O)(=O)CC1)C(F)(F)F` (racemic) [Example 180, 2-Amino-N-{1-[8-chloro-5-(1,1-dioxidothiomorpholin-4-yl)imidazo[1,5-a]pyridin-6-yl]-2,2,2-trifluoroethyl}pyrazolo[1,5-a]pyrimidine-3-carboxamide trifluoroacetate salt], the IC50 in experiment [1] is < 100 nM; in experiment [2] it was < 100 nM; in experiment [3] (setting [4]), < 500 nM.

As to `CC(C)C(NC(=O)c1c(N)nn2cccnc12)c1cc(Cl)c2cncn2c1N1CCS(=O)(=O)CC1` (racemic) [Example 181, 2-Amino-N-(1-(8-chloro-5-(1,1-dioxidothiomorpholino)imidazo[1,5-a]pyridin-6-yl)-2-methylpropyl)pyrazolo[1,5-a]pyrimidine-3-carboxamide trifluoroacetate salt], the results for the IC50 in experiment [1], in experiment [2] and in experiment [3] (setting [4]) were < 100 nM, < 100 nM and < 500 nM, respectively.

In the case of `Nc1nn2cccnc2c1C(=O)NC(c1cc(Cl)c2cncn2c1N1CCS(=O)(=O)CC1)C1CC1` (racemic) [Example 182, 2-Amino-N-((8-chloro-5-(1,1-dioxidothio-morpholino)imidazo [1,5-a]pyridin-6-yl)(cyclopropyl)methyl)pyrazolo [1,5-a] pyrimidine-3-carboxamide trifluoroacetate salt], the results for the IC50 in experiment [1], in experiment [2] and in experiment [3] (setting [4]) were < 100 nM, < 100 nM and < 500 nM, respectively.

Regarding `CCOc1c(C(C)NC(=O)c2c(N)nn3cccnc23)cc(Cl)c2cn[nH]c12` (single isomer, unassigned) [Example 3a, 2-amino-N-[1-(4-chloro-7-ethoxy-1H-indazol-6-yl)ethyl]pyrazolo[1,5-a]pyrimidine-3-carboxamide trifluoroacetate], the IC50 in experiment [1] was < 100 nM; in experiment [2] it was < 100 nM; in experiment [3] (setting [4]), < 500 nM.

For the molecule `CC(NC(=O)c1c(N)nn2cccnc12)c1cc(Cl)c2cncn2c1N1CCS(=O)(=O)CC1` (single isomer, unassigned) [Example 36A, 2-Amino-N-(1-[8-chloro-5-(1,1-dioxidothiomorpholin-4-yl)imidazo[1,5-a]pyridin-6-yl]ethyl)pyrazolo[1,5-a]pyrimidine-3-carboxamide], the IC50 in experiment [1] was < 100 nM; in experiment [2], < 100 nM; in experiment [3] (setting [4]), < 500 nM.

As for `CC(NC(=O)c1c(N)nn2cccnc12)c1cc(Cl)c2cncn2c1N1CCS(=O)(=O)CC1C` (single isomer, unassigned) [Example 38A, 2-Amino-N-(1-[8-chloro-5-(3-methyl-1,1-dioxidothiomorpholin-4-yl)imidazo[1,5-a]pyridin-6-yl]ethyl)pyrazolo[1,5-a]pyrimidine-3-carboxamide trifluoroacetate salt], the values for the IC50 in experiment [1], in experiment [2] and in experiment [3] (setting [4]) were < 100 nM, < 100 nM and < 500 nM, respectively.

Regarding `CC(NC(=O)c1c(N)nn2cccnc12)c1cc(Cl)c2cncn2c1N1CCCC(F)C1` (single isomer, unassigned) [Example 73A, 2-Amino-N-{1-[8-chloro-5-(3-fluoropiperidin-1-yl)imidazo[1,5-a]pyridin-6-yl]ethyl}pyrazolo[1,5-a]pyrimidine-3-carboxamide], the IC50 in experiment [1] is < 100 nM; in experiment [2], < 100 nM; in experiment [3] (setting [4]), < 500 nM.

As to `CC(NC(=O)c1c(N)nn2cccnc12)c1cc(Cl)c2cncn2c1N1CCCC(F)C1` (single isomer, unassigned) [Example 73B, 2-Amino-N-{1-[8-chloro-5-(3-fluoropiperidin-1-yl)imidazo[1,5-a]pyridin-6-yl]ethyl}pyrazolo[1,5-a]pyrimidine-3-carboxamide], the IC50 is < 100 nM in experiment [1], < 100 nM in experiment [2] and < 500 nM in experiment [3] (THP-1 cells).

As for `CC(NC(=O)c1c(N)nn2cccnc12)c1cc(Cl)c2cncn2c1N1CCCC(C)(O)C1` (single isomer, unassigned) [Example 76A, 2-Amino-N-{1-[8-chloro-5-(3-hydroxy-3-methylpiperidin-1-yl)imidazo[1,5-a]pyridin-6-yl]ethyl}pyrazolo[1,5-a]pyrimidine-3-carboxamide trifluoroacetate], the half-inhibitory concentration (IC50) in experiment [1] is < 100 nM; in experiment [2] it was < 100 nM; in experiment [3] (setting [4]) it was < 500 nM.

On to `CC(NC(=O)c1c(N)nn2cccnc12)c1cc(Cl)c2cncn2c1N1CCCC(C)(O)C1` (single isomer, unassigned) [Example 76B, 2-Amino-N-{1-[8-chloro-5-(3-hydroxy-3-methylpiperidin-1-yl)imidazo[1,5-a]pyridin-6-yl]ethyl}pyrazolo[1,5-a]pyrimidine-3-carboxamide trifluoroacetate], for which the 50% inhibitory concentration (IC50) is < 100 nM in experiment [1], < 500 nM in experiment [2] and < 500 nM in experiment [3] (THP-1 cells).

Consider `CC(NC(=O)c1c(N)nn2cccnc12)c1cc(Cl)c2cncn2c1N1CCCC(C)(C#N)C1` (single isomer, unassigned) [Example 77A, 2-Amino-N-{1-[8-chloro-5-(3-cyano-3-methylpiperidin-1-yl)imidazo[1,5-a]pyridin-6-yl]ethyl}pyrazolo[1,5-a]pyrimidine-3-carboxamide trifluroacetate], for which the IC50 in experiment [1] is < 100 nM; in experiment [2], < 500 nM; in experiment [3] (setting [4]) it was < 500 nM.

The values are drawn from patent US10065963B2 (Incyte Corporation, priority 2015, dated 2018).
